From US20130011393A1, “BAD PATHWAY GENE SIGNATURE” (priority 2010, published 2013) come the findings set out here.

Common to all, as to type: cell-based, human
One experiment relates to A2780S cells. The experiment is described as follows: Apoptotic nuclei after cisplatin following siRNA depletion of PKA or PP2C/PPM1A. The note with it: 1 μM cisplatin. The procedure: (§1) In FIGS. 14A and 14B, OVCA cell lines A2780S and A2780CP, respectively, were transfected with Flag vectors expressing wild-type BAD (WT) or BAD harboring serine (S) to alanine point mutations in serine-112, -136, or -155 (S112A, S136A, S155A). These S to A phosphorylation site mutations prevent phosphorylation of the BAD protein. Transfected cells were treated with vehicle or 1 μM (A2780S) or 10 μM (A2780CP) cisplatin for 48 hours and evaluated for the presence of apoptotic nuclei. FIG. 14C is a Western blot showing depletion of PP2C and PKA by siRNA. Controls included a non-targeting siRNA (NT). GAPDH was used as a loading control. […] Error bars indicate standard error of the mean.
(§2) RNA duplexes for PP2C/PPM1A (s10909 from ABI), cAMP-dependent protein kinase (PKA; 6406 from Cell Signaling), and vectors containing mutated BAD (pFlag-600, a kind gift from Dr. Hong Gang Wang, MCC) were transfected using the Nucleofector transfection kit, with non-targeting Silencer negative control #2 siRNA (ABI), according to manufacturer's protocols (Amaxa).
(§3) Morphologic assessment of condensed chromatin and fragmented DNA quantified percent apoptotic nuclei. Cells were fixed in 4% paraformaldehyde, and nuclei were stained with bis-benzimide trihydrochloride (0.5 μg/ml; Molecular Probes) and quantified using fluorescence microscopyl^5.

For experiment [1], the system named is OVCA cell lines (A2780S, A2780CP, A2008, C13). The experiment is described as follows: Cisplatin-resistance by CellTiter-96 MTS proliferation assay in serially cisplatin-treated OVCA cell lines. The note with it: after in vitro cisplatin-treatment/expansion cycles versus cells prior to serial cisplatin treatment. Here is the method:
Acquisition and culture conditions for the expansion of OVCA cells lines (T8, OVCAR5, OV2008, IGROV1, C13, A2780S, A2780CP, and A2008) were reported previouslyl^10. Cells were subjected to sequential treatment with increasing doses of cis-diammine-dichloroplatinum (cisplatin), using three dosing schedules resulting in […] treatment/expansion cycles. Treatment schedules A, B, and C included three treatments with 1, 2, and 3 μg/mL cisplatin, respectively, followed by three treatments with 3, 4, and 5 μg/mL, respectively. Each cisplatin treatment was followed by a cell recovery/expansion phase. Both cisplatin-resistance and genome-wide expression changes were measured serially in each cell line at baseline and after 3 and 6 cisplatin-treatment/expansion cycles. Cisplatin-resistance was quantified using CellTiter-96 MTS proliferation assays (Fisher Scientific) and analyzed genome-wide expression using Affymetrix Human U133 Plus 2.0 GeneChips as previously described^10,11 (Gene Expression Omnibus (GEO) accession number GSE23553).
Many of the BAD-pathway genes found to be associated with evolution of in vitro cisplatin-resistance are known to influence BAD phosphorylation (FIG. 12). The inventors therefore tested the hypothesis that BAD-phosphorylation status is associated with OVCA cisplatin-resistance. […]

The next experiment has as its system A2780S and A2780CP cells. The experiment is described as follows: Apoptotic nuclei after cisplatin in cells transfected with BAD phosphorylation-site mutants. The settings on record: 1 μM (A2780S) or 10 μM (A2780CP) cisplatin, 48 hours. The procedure:
as §1, §2, §3

Structures are written as SMILES.

As for `N.N.[Cl][Pt][Cl]` [cisplatin, cis-diammine-dichloroplatinum], the “cisplatin-induced apoptosis (percent apoptotic nuclei)” value with A2780S cells (siRNA depletion of PKA versus non-targeting control siRNA) is “increased”; with A2780S cells (siRNA depletion of PP2C/PPM1A), “decreased”. The “cisplatin EC50” value in experiment [1] is on record as “higher”. Also, the “cisplatin sensitivity (apoptotic nuclei)” value with A2780S and A2780CP cells (cells transfected with BAD[112A]) is “no effect”. The “cisplatin-induced apoptosis (apoptotic nuclei)” value with A2780S and A2780CP cells (cells transfected with BAD[S136A], BAD[S155A] versus wild-type BAD) was “increased”.
